Assay results published in US20210261636A1, “NEOANTIGENS EXPRESSED IN MULTIPLE MYELOMA AND THEIR USES” (Janssen Biotech, Inc., priority 2020, published 2021).

Key:
CD8+ T cells = assay: Exogenous autologous healthy donor restimulation assay, TNFα and IFNγ production by CD8+ T cells; format: cell-based, human; design: Frequency (TNFα+ IFNγ+ CD8 T cells): unit not given here; settings: for Fold change (CD8+) vs. DMSO: maximum CD8+ T-cell response (TNFα and IFNγ); for Fold change (CD8+) vs. DMSO / Frequency (TNFα+ IFNγ+ CD8 T cells): donor independent, peptide pool 10 μg/mL, healthy donors; for Frequency (TNFα+ IFNγ+ CD8 T cells): maximum CD8+ T-cell response; for Immunogenic (yes/no): positive if CD8+ and/or CD4+ double positive TNFα/IFNγ frequency >=3-fold over DMSO and at least 0.01%
Protocol: (§1) Immunogenicity responses were measured by estimating TNFα IFNγ double positive cells in the CD4+ and/or CD8+ T-cell populations. A response is considered positive if TNFα IFNγ double positive fraction was greater than or equal to three-fold over unstimulated cells (DMSO negative control) with a minimum frequency >=0.01%. […]
(§2) Overlapping 15-mer peptides were designed to span each indicated neoantigen. Their ability to activate T cells was assessed using known methods, such as the assay defnied as exogenous autologous normal donor restimulation assay. The peptides were used as pools using TNFα and IFNγ production by CD8^+ and CD4^+ T cells as a readout. Maximum frequency of CD8^+TNFα^+IFNγ^+ and CD4^+TNFα^+IFNγ^+ T cells and maximum fold change over background for each pool of peptides were analyzed, which were calculated as the highest frequency of CD8^+ TNFα^+IFNγ^+ and CD4^+ TNFα^+IFNγ^+ T cells and resulting fold change across the normal donors evaluated for the peptide.
(§3) CD1c+Dendritic Cells (CD1c+DC) isolated from human healthy PBMCs were thawed using media (IMDM (Gibco) supplemented with glutamine, HEPES, 5% human serum (Sigma), and 1× Pen-Strep). DC cells were resuspended in media supplemented with IL-4 (Peprotech, 20 ng/mL) and GM-CSF (Gibco, 20 ng/mL), plated in 6 well microplates, and rested overnight at 37° C. and 5% CO2 incubator. The following day, DC cells were counted and plated in a 96 well round bottom microplate at a concentration of 30,000 viable cells per well. Lyophilized neoantigen peptide pools (15-mer peptides with 8-mer overlapping peptide sequences) were solubilized in 100% DMSO with a stock concentration of 20 mg/mL Neoantigen peptides pools were added to DCs for a final concentration of 10 μg/mL and rested for 2 hours at 37° C. and 5% CO2 incubator. CEF Peptide Pool “Plus” (Cellular Technologies, Ltd.) was utilized as a positive control (each viral peptide at a final concentration of 4 ug/ml) and DMSO at the same final concentration (0.05%) as the experimental peptides was utilized as a negative control. After 2 hours, DC cells were irradiated with 50 gray of ionizing radiation. Autologous CD3+ Pan-T cells isolated from human normal PBMCs were thawed using media. Following irradiation, autologous Pan-T cells were added to the irradiated DCs at 300,000 viable cells per well. Human IL-15 (Peprotech) was added to all wells at final concentration of 10 ng/ml. Plates were incubated at 37° C. and 5% CO2 incubator for a total of 12 days. Media was refreshed every 2-3 days with IL-15 (R&D System, 10 ng/mL final concentration) and IL-2 (R&D systems, 10 IU/mL final concentration).
(§4) On Day 11, cells were re-stimulated with identical experimental peptide pools or controls, at same concentration as peptide stimulation on Day 1. Protein Inhibitor Cocktail (eBioscience) was added to every well and plate was incubated overnight for 14-16 hours at 37° C. and 5% CO2 incubator. On Day 12, cells were stained for surface and intracellular flow cytometry analysis. The cells were washed with PBS and stained with Live/Dead Fixable Aqua Dead Cell stain (Thermo-Fisher). Following the live/dead stain, cells were blocked using Biotin-Free Fc Receptor Blocker (Accurate Chemical & Scientific Corp). Extracellular cellular flow panel (1 μL/antibody per well in 50 μL) consisted of CD3 PerCP-Cy5.5 (Biolegend), CD4 BV421 (Biolegend), and CD8 APC-Cy7 (Biolegend). After extracellular staining, cells were fixed and permeabilized using Foxp3/Transcription Factor Staining Buffer Set (eBioscience) and stained for intracellular proteins (1:50 dilution) using TNFα FITC (R&D Systems) and IFNγ BV785 (Biolegend). Cells were washed and resuspended in stain buffer, analyzed, and recorded in a BD Celesta flow cytometer.
(§5) Flow cytometry analysis was conducted on FlowJo v10.6 software. Cells were gated on live, singlet, CD3+, CD4+ and CD8+ T cells. The CD8+ and CD4+ T cells were analyzed for TNFα and IFNγ expression. […]

CD4+ T cells = assay: Exogenous autologous healthy donor restimulation assay, TNFα and IFNγ production by CD4+ T cells; format: cell-based, human; design: Frequency (TNFα+ IFNγ+ CD4 T cells): unit not given here; settings: donor independent, peptide pool 10 μg/mL, healthy donors; for Fold change (CD4+) vs. DMSO: maximum CD4+ T-cell response (TNFα and IFNγ); for Frequency (TNFα+ IFNγ+ CD4 T cells): maximum CD4+ T-cell response
Protocol: as §1, §2, §3, §4, §5

Row | Sequence | Fold change (CD8+) vs. DMSO (CD8+ T cells) | Frequency (TNFα+ IFNγ+ CD8 T cells) (CD8+ T cells) | Immunogenic (yes/no) (CD8+ T cells) | Fold change (CD4+) vs. DMSO (CD4+ T cells) | Frequency (TNFα+ IFNγ+ CD4 T cells) (CD4+ T cells)
1 | LQAILQPGNFILVNEI [AS5, alternative splicing, C3orf79] | 4.64 | 0.068 | Yes | 19.14 | 0.14
2 | LRYLIHLRKWKIK [FUS55, gene fusion FAM214A-> ARPP19] | 13.57 | 0.38 | Yes | 74.67 | 0.056
3 | LTALLLLASTPTP [AS18, alternative splicing, FCRLB] | 7.33 | 0.082 | Yes | 12.922 | 0.006
4 | LVARPEIQIFMEEDVMKVE [AS124, alternative splicing, PDZRN4] | 5.27 | 0.089 | Yes | 7.31 | 0.064
5 | MDLTAIYEDSAGPLSHA [FUS54, gene fusion ZFP36-> PLEKHG2] | 15.176 | 2.58 | Yes | 9.66 | 0.063
6 | MDLTAIYETMQIFVKT [FUS30, gene fusion ZFP36-> UBC] | 3.5 | 0.13 | Yes | 51.81 | 0.1
7 | MEPTTKRGPGGTMVSAAAPS [FUS52, gene fusion SELPLG-> TMEM119] | 46.95 | 2.09 | Yes | 6.831 | 0.02
8 | MKQFLDFGECGPGPWAFLRGPGRGAAAAAPGRVGAGQLSPEAHPSSSAFPPPAP [AS10, alternative splicing, PDK1] | 70.588 | 12 | Yes | 76.818 | 0.028
9 | NASLHEVKDFFVPFPLPLLHLTSLKRNKLFN [AS110, alternative splicing, CCDC88A] | 228.56 | 4.21 | Yes | 36.021 | 0.21
10 | NAVRSYYEGTENIVAV [FUS18, gene fusion CADPS2-> RNF148] | 542.51 | 0.671 | Yes | 0.95 | 0.005
11 | NAVRSYYETNGGMSFLRITP [FUS19, gene fusion CADPS2-> RNF148] | 12.96 | 0.016 | Yes | 1.26 | 0.009
12 | NRVTALTQN [FUS35, gene fusion TMED3-> KIAA1024] | 3.24 | 0.049 | Yes | 2.28 | 0.019
13 | PKVFPKNQVISLIPKAQEDPEHT [AS127, alternative splicing, ST3GAL6] | 1.44 | 0.08 | Yes | 7.179 | 0.14
14 | PPGGHSPQDLSIREIFCLGHKEVC [AS136, alternative splicing, ZNF592] | 5.91 | 0.072 | Yes | 10.86 | 0.07
15 | PPLITNVTEKPWKHTRIEMPLARLTRP [FUS51, gene fusion POU2AF1-> COLCA1] | 200 | 0.06 | Yes | 11.93 | 0.061
16 | PPTAAASQTCLELER [FUS21, gene fusion FOSB-> KLF6] | 4.24 | 0.04 | Yes | 8.08 | 0.023
17 | PPTAAASQTMQIFVKT [FUS31, gene fusion FOSB-> UBC] | 14.72 | 0.022 | Yes | 0.7 | 0.004
18 | PQEEVPFRSITTELFPSMC [FUS27, gene fusion TBCEL-> TECTA] | 3.38 | 0.009 | Yes | 3.3 | 0.038
19 | PRDNHTDHENPRGSDGQGRWKCPSQVTYIRRTLM [FUS16, gene fusion UBE2J1-> GABRR2] | 8.86 | 0.12 | Yes | 4.388 | 0.027
20 | PVILFKGKVRPIP [AS67, alternative splicing, MTMR14] | 28.23 | 0.52 | Yes | 8.57 | 0.071
21 | QIIYDENRTMQIFVKT [FUS28, gene fusion NCOR2-> UBC] | 247.49 | 0.37 | Yes | 1.13 | 0.009
22 | QILEQPKQVRLKGWDFKC [AS68, alternative splicing, NFKB1] | 4 | 0.022 | Yes | 21.77 | 0.033
23 | QILQQALKIAFLKVVVPLKLHPYSFCH [AS132, alternative splicing, USP25] | 4.73 | 0.026 | Yes | 181.82 | 0.17
24 | QILQQALKKLPFSLCITECETIAYHLARDSNGNLEL [AS131, alternative splicing, USP25] | 299.44 | 0.53 | Yes | 10.53 | 0.008
25 | QIRVPSYSDEG [AS114, alternative splicing, CNTN5] | 7.6 | 0.14 | Yes | 2.05 | 0.02
